Data published in US9861640B2, “Medicament for treatment of Alzheimer's disease” (KEMPHYS LTD., priority 2013, dated 2018).

Columns and labels:
APP23 mice = settings: earlier study [15]; oral Am80 0.5 mg/kg/d for 14 weeks; 5-month-old APP23 mice; cited from earlier work
CD36 = test: Immunoblot of CD36 in brains of APP23 mice; format: in vivo, mouse; settings: Am80 0.5 and/or HX630 5 mg/kg/d, day 18, whole-cell extracts
Description: (§1) APP23 mice begin forming amyloid deposits when they are 6 months old, but memory deficits in the MWM test appear quite early (before 3 months of age). Here, we used 8.5-month-old male APP23 mice and their WT littermates (C57BL/6J). We used stratified random sampling to divide mice (four to six per cage) into four groups to equalize the mean body weight of the study groups: mice given 0.5 mg/kg/d Am80, those given 5 mg/kg/d HX630, those given the mixture of 0.5 mg/kg/d Am80 and 5 mg/kg/d HX630, and those given the vehicle. Am80 and HX630 were suspended in 0.5% (w/v) carboxymethylcellulose solution and were orally administered to mice at 0.5 mg/kg (Am80) or 5 mg/kg (HX630) for 17 consecutive days (once daily at 18:00). Control animals received the same volume of 0.5% (w/v) carboxymethylcellulose solution orally, without the other compounds. We set the 0.5 mg/kg/d dose for Am80 on the basis that this had been found effective in other in vivo studies, such as those by Kawahara et al. and Ishido and Shudo [37]. Higher doses of Am80 (3 mg/kg/d and 6 mg/kg/d) were also orally administered to mice for 17 consecutive days. Animals were weighed once a week. Mice were subjected to behavioral testing on days 15-18 of the first oral administration of the compounds (at 19:00-23:00). On days 15-17 (not day 18), animals received the compounds at 24:00, after behavioral testing. […]

Ide mRNA = test: Quantitative RT-PCR of Ide mRNA in brains of APP23 mice; format: in vivo, mouse; settings: day 18, vs vehicle, Am80/HX630 P<0.05, HX630 P=0.062 (not significant)
Description: as §1, with “[37].” for “[37]. Higher doses of Am80 (3 mg/kg/d and 6 mg/kg/d) were also orally administered to mice for 17 consecutive days. Animals were weighed once a week. Mice were subjected to behavioral testing on days 15-18 of the first oral administration of the compounds (at 19:00-23:00). On days 15-17 (not day 18), animals received the compounds at 24:00, after behavioral testing.”
Total RNA from the cerebral hemispheres, hippocampus, or MG5 cells was prepared by guanidinium thiocyanate-phenol-chloroform extraction. […] Quantitative real-time PCRs were carried out by using the LightCycler 1.5 system (Roche, Mannheim, Germany) with the FastStart DNA Master SYBR Green I LightCycler kit (Roche). […]

Structure (SMILES)	behavioral benefits (APP23 mice)	CD36 protein level in brain (immunoblot) (CD36)	Ide mRNA level in brain (Ide mRNA)
CC1(C)CCC(C)(C)c2cc(NC(=O)c3ccc(C(=O)O)cc3)ccc21 [Am80, 4-{(5,6,7,8-tetrahydro-5,5,8,8-tetramethyl-2-naphthalenyl)carbamoyl}benzoic acid]	did not detect behavioral benefits	–	–
CN1c2ccccc2N=C(c2ccc(C(=O)O)cc2)c2cc3c(cc21)C(C)(C)CCC3(C)C [HX630, 4-[5H-2,3-(2,5dimethyl-2,5-hexano)-5-methyldibenzo[b,e]-diazepin-11-yl]benzoic acid]	–	increased	slight increase
